The target in this assay is Thymidylate synthase (Escherichia coli (strain K12), UniProt P0A884). The assay can be described thus: Thymidylate Synthase (TS) Assay. As for the experimental part:
TS was assayed spectrophotometrically in the reaction buffer solution containing (6R, 6S)-5, 10-CH2H4folate. The reaction was initiated by the addition of an amount of enzyme yielding a change in absorbance at 340 nm of 0.016/min in the absence of inhibitor. Ki values were obtained from the linear least-squares fit of the residual activity as a function of inhibitor concentration, using suitable equations for competitive inhibition.

For one compound, Ki results are on record in BindingDB's records for doi:10.1021/jm051187d (Unimore, 2006).

Chain of Thymidylate synthase (P0A884 whole entry): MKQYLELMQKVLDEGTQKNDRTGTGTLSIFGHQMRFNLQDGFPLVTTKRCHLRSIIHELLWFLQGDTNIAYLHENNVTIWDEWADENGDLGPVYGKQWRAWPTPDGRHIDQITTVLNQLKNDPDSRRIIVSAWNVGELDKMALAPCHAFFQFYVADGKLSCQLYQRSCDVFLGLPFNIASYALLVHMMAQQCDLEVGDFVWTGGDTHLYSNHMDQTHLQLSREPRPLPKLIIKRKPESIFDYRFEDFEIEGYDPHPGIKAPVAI

The compound `O=C1OC(c2cc(Br)c(O)c(Br)c2)(c2cc(Br)c(O)c(Br)c2)c2cccc3cccc1c23` [4,4-bis(3,5-dibromo-4-hydroxyphenyl)-3-oxatricyclo[7.3.1.0^{5,13}]trideca-1(12),5,7,9(13),10-pentaen-2-one] showed a Ki greater than 11 mM.
